We go through 22 compounds from patent publication US11932657B2, “Heterocyclic compound” (priority 2018, dated 2024).

Assay [1] concerns the target T1, aryl hydrocarbon receptor (AhR) (Homo sapiens, UniProt P35869).
T1 construct: DRE-Luc HepG2 cells subcultured in a 225 cm^2 flask; endogenous in cells; host or cells: HepG2 (ATCC), stably transfected with the reporter hCYP1A1/pGL4.27 (DRE-Luc HepG2)
T1 sequence (P35869 11-848): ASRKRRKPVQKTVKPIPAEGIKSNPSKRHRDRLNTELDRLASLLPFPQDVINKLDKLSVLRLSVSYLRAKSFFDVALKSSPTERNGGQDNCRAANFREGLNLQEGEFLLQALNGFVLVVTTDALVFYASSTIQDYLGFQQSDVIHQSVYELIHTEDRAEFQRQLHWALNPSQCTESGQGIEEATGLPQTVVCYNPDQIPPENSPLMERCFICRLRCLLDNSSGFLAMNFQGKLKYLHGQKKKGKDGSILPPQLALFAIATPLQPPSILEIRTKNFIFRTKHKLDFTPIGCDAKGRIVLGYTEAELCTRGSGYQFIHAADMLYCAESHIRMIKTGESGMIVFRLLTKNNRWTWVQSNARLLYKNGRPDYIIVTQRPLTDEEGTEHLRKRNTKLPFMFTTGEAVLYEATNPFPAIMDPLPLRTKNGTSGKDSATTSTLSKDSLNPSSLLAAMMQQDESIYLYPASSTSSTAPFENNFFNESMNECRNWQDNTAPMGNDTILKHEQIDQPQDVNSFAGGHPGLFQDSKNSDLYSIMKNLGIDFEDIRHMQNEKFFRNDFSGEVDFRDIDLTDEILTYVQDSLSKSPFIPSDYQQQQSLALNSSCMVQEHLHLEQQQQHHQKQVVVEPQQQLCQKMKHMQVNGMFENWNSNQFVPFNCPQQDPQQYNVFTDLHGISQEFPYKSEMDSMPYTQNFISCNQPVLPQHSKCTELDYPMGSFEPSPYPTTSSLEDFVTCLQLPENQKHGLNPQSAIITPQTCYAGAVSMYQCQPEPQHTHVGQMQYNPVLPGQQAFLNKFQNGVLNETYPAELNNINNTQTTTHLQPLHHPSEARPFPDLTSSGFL
In words: AhR reporter gene assay (aryl hydrocarbon receptor antagonist activity, DRE-Luc HepG2 cells, TCDD-stimulated luciferase). The assay is classed as cell-based. On the procedure:
Test Example 1 (Aryl Hydrocarbon Receptor Antagonist Activity)
An expression vector, hCYP1A1/pGL4.27 was introduced into HepG2 cells (derived from American Type Culture Collection (ATCC)) that were seeded in 6-well plates (#3810-006 (Iwaki)) at 1.2×10^6 cells/well, using Lipofectamine 3000 (#100022050 (Invitrogen)). Referring to Garrion P M et al., Fundam Appl Toxicol, 30, 194 (1996), the vector hCYP1A1/pGL4.27 incorporated the human CYP1A1 promotor region including dioxin responsive element (DRE) region of the AhR binding region into the XhoI-BglII restriction enzyme site of pGL4.27 (#E8451 (Promega)). After 24 hours, medium-1 was replaced, and after 48 hours, the medium-1 containing hygromycin B (200 to 1000 μg/mL) was subjected to drug treatment. Culturing using the medium containing hygromycin B was continued for about 1 month to clone 24 clones showing drug resistance. A cell line showing high reporter activity was selected (DRE-Luc HepG2) from drug resistant lines using as an indicator luciferase activity (Dual-Glo Luciferase substrate, #E297A (Promega)) relative to an AhR agonist, 2,3,7,8-tetrachlorodibenzo-p-dioxin (TCDD) (#ED-901-B (CIL.)).
DRE-Luc HepG2 cells subcultured in a 225 cm^2 flask (#11-0005 (Iwaki)) were washed with PBS (#1419-144 (Gibco), Lot: 1896207), and thereto was added 8 mL of Trypsin-EDTA (0.05%) (#25300-054 (Gibco)). Thereafter, an excessive liquid was removed from the mixture, and the cells were stood at room temperature for 5 minutes. Thereto was added 10 mL of medium-2, the cells were recovered through a cell strainer (#352350 (Falcon), 70 μm), and the number of cells were then counted using a hemocytometer. A cell suspension was prepared at 3×10^5 cells/mL, 100 μL/well of the cell suspension was seeded into a 96-well white plate (#136101, F96 Microwell (Nunc)), and the cells were then cultured in a CO2 incubator (5% CO2, 37° C.). After 24 hours, the medium was aspirated, and thereto was added 100 μL of an assay medium solution including the compound of the present invention, and the cells were cultured in the CO2 incubator (5% CO2, 37° C.). After 24 hours, 11 μL of an assay medium solution including 5×10^−10 M TCDD (#ED-901-B (CIL.)) was added thereto and the cells were cultured in the CO2 incubator (5% CO2, 37° C.). After 24 hours, 50 μL of a reaction substrate (#E253B, Steady-Glo Luciferase substrate (Promega)) for Firefly Luciferase enzyme reaction was added to each well, and after 5 minute-shaking, the light emission intensity was measured with Wallac ARVO 1420sx (PerkinElmer).

Assay [2] has as its system immortalized megakaryocyte line (SeV2-MKCL). In words: Platelet production: static culturing of immortalized megakaryocyte line. It counts as cell-based. The settings on record: compound final concentration 0.1 μM, static culturing 6 to 7 days, control (DMSO) set to 1; platelets = CD41, CD42b and CD42a-positive cells. How it is done:
Test Example 2 (Platelet Production: Static Culturing)
The immortalized megakaryocyte line (SeV2-MKCL) obtained according to the method described in WO 2016/204256 was washed twice with D-PBS(−) and then cultured in medium not containing doxycycline to terminate forced expression. Culturing was implemented by seeding the cells at 1 mL/well in a 24-well plate (#662160 (Greiner Rio-One)) at a seeding density of 1×10^5 cells/mL followed by static culturing in the medium indicated below.
The medium was obtained by adding the following components to IMDM serving as the basal medium (concentrations indicate final concentrations).
Culturing was implemented under conditions of 37° C. and 5% CO2. At the same time, the compound of the present invention (final concentration 0.1 μM) or DMSO (control) was added and cultured for 6 to 7 days. Thereafter, the number of platelets (CD41, CD42b, and CD42a-positive cells) was measured. The measurement method was as shown below. The same procedure was performed with the control.
A portion of the culture supernatant was harvested 6 to 7 days after culturing to terminate gene expression, and suspended with the following antibodies to stain them. eFluor 450-labeled anti-CD42a antibody (#48-0428-42 (eBioscience)) PE-labeled anti-CD42b antibody (#303906 (BioLegend)) APC-labeled anti-CD41 antibody (#303710 (BioLegend)) The number of platelets was counted using FACSVerse manufactured by BD 30 minutes after the stain reaction. In the measurement of the number of platelets, the number of cells was corrected using Flow-count beads (#7547053 (Beckman Coulter)).
The number of platelets produced from one megakaryocyte cell was calculated based on the number of platelets in the sample obtained by the FACS measurement, and the result was defined as platelet production efficiency (PLT/MK) and used for evaluation of drug efficacy of the compound. In addition, the specific activity at the time when the platelet production efficiency of the control was set to 1 was indicated as fold increase.

In assay [1], `Cc1cncc(-c2nc(NCCc3ccc(O)c(-c4ccccc4F)c3)c3nc4n(c3n2)C(C)(C)CS4)c1` [Example 26] registered a 50% inhibitory concentration (IC50) of 1 nM. The “Static (vs veh): fold increase of platelet production efficiency (PLT/MK)” value (“Static (vs veh): fold increase” for short) in assay [2] is on record as 5.0.
The matching figures for `Cc1cncc(-c2nc(NCCc3ccc(O)c(-c4cccc(F)c4)c3)c3nc4n(c3n2)C(C)(C)CS4)c1` [Example 27]: 0.35 nM and 6.0.
In assay [1], `C[C@@H]1CSc2nc3c(NCCc4ccc(O)c(-c5ccccc5F)c4)nc(-c4cncc(F)c4)nc3n21` [Example 28] came in with an IC50 of 0.4 nM. Further, in assay [2], the “Static (vs veh): fold increase” value is 9.7.
In assay [1], `C[C@@H]1CSc2nc3c(NCCc4ccc(O)c(-c5cccc(F)c5)c4)nc(-c4cncc(F)c4)nc3n21` [Example 29] came in with an IC50 of 0.37 nM. The “Static (vs veh): fold increase” value in assay [2] came to 8.4.
The matching figures for `C[C@H]1CSc2nc3c(NCCc4ccc(O)c(-c5ccccc5F)c4)nc(-c4cncc(F)c4)nc3n21` [Example 30]: 0.78 nM and 6.7.
For `C[C@H]1CSc2nc3c(NCCc4ccc(O)c(-c5cccc(F)c5)c4)nc(-c4cncc(F)c4)nc3n21` [Example 31] the same measures were 0.46 nM and 5.9.
The matching figures for `CC1(C)COc2nc3c(NCCc4ccc(O)c(-c5cccnc5)c4)nc(-c4cncc(F)c4)nc3n21` [Example 32, 4-[2-[[2-(5-fluoropyridin-3-yl)-8,8-dimethyl-7H-purino[8,9-b][1,3]oxazol-4-yl]amino]ethyl]-2-pyridin-3-ylphenol]: 29 nM and 6.8.
Consider `CC1(C)COc2nc3c(NCCc4ccc(O)c(-c5csc6ccccc56)c4)nc(-c4cncc(F)c4)nc3n21` [Example 35], for which it took 12 nM to reach half-maximal inhibition in assay [1] (IC50). The “Static (vs veh): fold increase” value in assay [2] amounted to 6.0.
With `CC1(C)COc2nc3c(NCCc4ccc(O)c(-c5cccc(F)c5)c4)nc(-c4cncc(C#N)c4)nc3n21` [Example 36], in assay [1], it took 0.7 nM to reach half-maximal inhibition (IC50). The “Static (vs veh): fold increase” value in assay [2] came out at 2.7.
The compound `CC1(C)CSc2nc3c(NCCc4ccc(O)c(-c5cccc(F)c5)c4)nc(-c4cncc(C#N)c4)nc3n21` [Example 37] showed an IC50 in assay [1] of 0.53 nM. Further, the “Static (vs veh): fold increase” value in assay [2] amounted to 2.1.
`CC1(C)CSc2nc3c(NCCc4ccc(O)c(-c5ccccc5F)c4)nc(-c4cncc(C#N)c4)nc3n21` [Example 38] showed an IC50 in assay [1] of 0.49 nM. In addition, the “Static (vs veh): fold increase” value in assay [2] is 4.9.
With `C[C@@H]1CSc2nc3c(NCCc4ccc(O)c(-c5ccccc5F)c4)nc(-c4cncc(C#N)c4)nc3n21` [Example 39], the IC50 in assay [1] was determined as 1.2 nM. Besides, the “Static (vs veh): fold increase” value in assay [2] is 4.3.
As to `Cc1ccccc1-c1cc(CCNc2nc(-c3cncc(F)c3)nc3c2nc2n3C(C)(C)CO2)ccc1O` [Example 40], in assay [1], the IC50 was determined as 40 nM. Besides, in assay [2], the “Static (vs veh): fold increase” value worked out at 9.8.
In turn, `COc1ccccc1-c1cc(CCNc2nc(-c3cncc(F)c3)nc3c2nc2n3C(C)(C)CO2)ccc1O` [Example 41] displayed an IC50 in assay [1] of 10 nM. Further, the “Static (vs veh): fold increase” value in assay [2] worked out at 7.0.
In assay [1], `CC1(C)COc2nc3c(NCCc4ccc(O)c(-c5ccc(F)cc5F)c4)nc(-c4cncc(F)c4)nc3n21` [Example 42] yielded an IC50 of 6.1 nM. In addition, the “Static (vs veh): fold increase” value in assay [2] stood at 4.8.
In assay [1], `CC1(C)COc2nc3c(NCCc4ccc(O)c(-c5cncc(F)c5)c4)nc(-c4cncc(F)c4)nc3n21` [Example 43, 2-(5-fluoropyridin-3-yl)-4-[2-[[2-(5-fluoropyridin-3-yl)-8,8-dimethyl-7H-purino[8,9-b][1,3]oxazol-4-yl]amino]ethyl]phenol] had an IC50 of 26 nM. The “Static (vs veh): fold increase” value in assay [2] amounted to 7.1.
`CC1(C)COc2nc3c(NCCc4ccc(O)c(-c5c(F)cccc5F)c4)nc(-c4cncc(F)c4)nc3n21` [Example 44]: it took 3.5 nM to reach half-maximal inhibition in assay [1] (IC50). In assay [2], the “Static (vs veh): fold increase” value stood at 3.4.
Turning to `CC1(C)COc2nc3c(NCCc4ccc(O)c(-c5c(F)cccc5F)c4)nc(-c4cncc(C#N)c4)nc3n21` [Example 45], the IC50 in assay [1] turned out to be 11 nM. The “Static (vs veh): fold increase” value in assay [2] turned out to be 2.4.
In assay [1], `CC1(C)COc2nc3c(NCCc4ccc(O)c(-c5ccccc5)c4)nc(-c4cncc(C#N)c4)nc3n21` [Example 46, 5-[4-[2-(4-hydroxy-3-phenylphenyl)ethylamino]-8,8-dimethyl-7H-purino[8,9-b][1,3]oxazol-2-yl]pyridine-3-carbonitrile] displayed a 50% inhibitory concentration (IC50) of 9.9 nM. Besides, the “Static (vs veh): fold increase” value in assay [2] is 5.0.
The matching figures for `CC1(C)CSc2nc3c(NCCc4ccc(O)c(-c5ccccc5)c4)nc(-c4cncc(F)c4)nc3n21` [Example 47]: 0.38 nM and 3.7.
For `CC1(C)CSc2nc3c(NCCc4ccc(O)c(-c5ccccc5)c4)nc(-c4cncc(C#N)c4)nc3n21` [Example 48] the same measures were 0.42 nM and 3.5.
For `C[C@@H]1CSc2nc3c(NCCc4ccc(O)c(-c5ccccc5)c4)nc(-c4cncc(F)c4)nc3n21` [Example 49] the same measures were 0.36 nM and 5.5.
